Data as given in patent US6727237B2, “Inhibitors of bacterial NAD synthetase” (priority 1998, dated 2004).

What was measured:
[1] = target: T1, bacterial NAD synthetase enzyme (Bacillus subtilis, UniProt P08164); assay: biochemical; assay type: biochemical
T1 sequence (P08164 2-272 limits assumed): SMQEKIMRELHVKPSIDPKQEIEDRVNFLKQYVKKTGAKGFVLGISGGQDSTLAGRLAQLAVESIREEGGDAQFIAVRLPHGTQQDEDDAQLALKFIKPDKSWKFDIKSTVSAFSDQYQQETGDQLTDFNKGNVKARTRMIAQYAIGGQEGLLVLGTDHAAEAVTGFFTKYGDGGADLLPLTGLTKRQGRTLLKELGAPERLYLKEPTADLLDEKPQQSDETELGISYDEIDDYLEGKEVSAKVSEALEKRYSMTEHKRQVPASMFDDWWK

[2] = system: Staphylococcus epidermitis; assay: Bacterial growth inhibition screen in LB media (absorbance 595 nm), percent inhibition; conditions: S. epidermitis
[3] = compound at 0.2 mM (Table 312A)

| SMILES | % Inhibition [1, 3] [%] | % Inhibition ([2]; concentration screened 10 uM) [%] | % Inhibition ([2]; concentration screened 100 uM) [%] | % Inhibition ([1]; compound at 0.1 mM (Table 314)) [%] |
| --- | --- | --- | --- | --- |
| CCCCc1ccc2[nH]c(CCCCCC[n+]3ccc4ccccc4c3)cc2c1 [Compound 531] | 36.55 | 8.77 |  |  |
| CC(C)c1ccc2[nH]c(CCCCC[n+]3ccc4ccccc4c3)cc2c1 [Compound 536] | 32.49 |  | 96.64 |  |
| CC(C)c1ccc2[nH]c(CCCCCC[n+]3ccc4ccccc4c3)cc2c1 [Compound 537] | 10.69 | 5.43 |  |  |
| CC(C)c1ccc2[nH]c(CCCCCCC[n+]3ccc4ccccc4c3)cc2c1 [Compound 538] | 40.95 | 43.05 |  |  |
| CC(C)c1ccc2[nH]c(CCCCCCCC[n+]3ccc4ccccc4c3)cc2c1 [Compound 539] | 16.80 | 4.67 |  |  |
| c1ccc(-c2ccc3[nH]c(CCC[n+]4ccc5ccccc5c4)cc3c2)cc1 [Compound 540] | 20.20 | 1.60 |  |  |
| c1ccc(-c2ccc3[nH]c(CCCCC[n+]4ccc5ccccc5c4)cc3c2)cc1 [Compound 542] | 15.89 |  | 96.93 |  |
| c1ccc(-c2ccc3[nH]c(CCCCCC[n+]4ccc5ccccc5c4)cc3c2)cc1 [Compound 543] | 28.06 | 5.99 |  |  |
| c1ccc(-c2ccc3[nH]c(CCCCCCCC[n+]4ccc5ccccc5c4)cc3c2)cc1 [Compound 545] | 32.18 | 15.39 |  |  |
| O=[N+]([O-])c1ccc2[nH]c(CCCCCC[n+]3ccc4ccccc4c3)cc2c1 [Compound 549] | 14.08 | 3.13 |  |  |
| O=[N+]([O-])c1ccc2[nH]c(CCCCCCC[n+]3ccc4ccccc4c3)cc2c1 [Compound 550] | 28.18 | 4.40 |  |  |
| c1ccc(C(c2ccccc2)(c2ccccc2)c2ccc3[nH]c(CCCCCCC[n+]4ccc5ccccc5c4)cc3c2)cc1 [Compound 556] |  | 60.18 |  | 18.19 |
| Fc1ccc2[nH]c(CCCCC[n+]3ccc4ccccc4c3)cc2c1 [Compound 560] | 46.91 |  | 98.43 |  |
| Fc1ccc2[nH]c(CCCCCCC[n+]3ccc4ccccc4c3)cc2c1 [Compound 562] | 46.44 | 9.44 |  |  |
| c1ccc(Oc2ccc3[nH]c(CCCCC[n+]4ccc5ccccc5c4)cc3c2)cc1 [Compound 566] | 29.72 |  | 98.21 |  |
| c1ccc(Oc2ccc3[nH]c(CCCCCCC[n+]4ccc5ccccc5c4)cc3c2)cc1 [Compound 568] | 18.95 | 3.10 |  |  |
| O=C(c1ccccc1)c1ccc2[nH]c(CCCCC[n+]3ccc4ccccc4c3)cc2c1 [Compound 572] | 31.02 |  | 96.57 |  |
| O=C(c1ccccc1)c1ccc2[nH]c(CCCCCC[n+]3ccc4ccccc4c3)cc2c1 [Compound 573] | 26.24 | 16.09 |  |  |
| FC(F)(F)c1ccc2[nH]c(CCCCC[n+]3ccc4ccccc4c3)cc2c1 [Compound 578] | 30.96 |  | 97.79 |  |
| FC(F)(F)c1ccc2[nH]c(CCCCCC[n+]3ccc4ccccc4c3)cc2c1 [Compound 579] | 12.57 | 5.57 |  |  |
| CC(=O)c1ccc2[nH]c(CCCCC[n+]3ccc4ccccc4c3)cc2c1 [Compound 584] | 68.79 |  | 96.07 |  |
| CC(=O)c1ccc2[nH]c(CCCCCC[n+]3ccc4ccccc4c3)cc2c1 [Compound 585] | 17.43 | 2.09 |  |  |
| CC(=O)c1ccc2[nH]c(CCCCCCCC[n+]3ccc4ccccc4c3)cc2c1 [Compound 587] | 56.47 |  | 100.00 |  |
| COc1ccc2[nH]c(CCCC[n+]3ccc4ccccc4c3)cc2c1 [Compound 589] |  | 29.35 |  | 24.98 |
| COc1ccc2[nH]c(CCCCC[n+]3ccc4ccccc4c3)cc2c1 [Compound 590] | 28.82 |  | 94.43 |  |
